From patent US9527828B2, “Method for expanding hematopoietic stem cells using heterocyclic compound” (Nissan Chemical Industries, Ltd., priority 2007, dated 2016)

Tested on: CD34^+CD38^− cells
Test: Expansion of CD34+CD38− cells from human cord blood-derived CD34+ cells (Example 2)
Type: cell-based
Details: 1 μg/mL compound, 50 ng/mL SCF, StemSpan SFEM, 7 days, based on number of CD34+CD38− cells in the absence of compound; for fold induction at 1 µg/mL: Homo sapiens, 168 h, read-out: Expansion efficiency
Experimental: The human cord blood-derived CD34^+ cells collected or purchased in Example 1 were plated on a 24-well plate (TPP) (10000 cells/1/mL/well). As the culture medium, StemSpan SFEM (Stemcell Technologies) containing 50 ng/mL SCF (Peprotech) was used, and Compounds No. 1 to 133 dissolved in dimethyl sulfoxide were added in an amount of 0.1% (v/v) to a final concentration of 1 μg/mL.
After the cells were incubated in liquid culture at 37° C. for 7 days in a CO2 incubator (5% CO2), the number of viable cells was counted by trypan blue assay. The number of CD34^+CD38^− cells was calculated as follows. After the incubation, the cells in the liquid culture was stained with a CD34 antibody (APC, Becton, Dickinson and Company) and a CD38 antibody (PE, Becton, Dickinson and Company), then washed with PBS(−) containing 2% (v/v) FBS and stained with propidium iodide (Sigma-Aldrich Japan) added to a final concentration of 5 μg/mL. The stained cells were analyzed with a flow cytometer JSAN (Bay Bioscience) to determined the proportion of CD34^+CD38^− cells, which was multiplied by the number of viable cells to calculate the number of CD34^+CD38^− cells.
The expansion efficiencies in the presence of 1 μg/mL of compounds based on the number of CD34^+CD38^− cells in the absence of them are shown in Tables 2 and 3 on a scale of A for expansion efficiencies of 10 or greater, B for expansion efficiencies of at least 5 and less than 10, and C for expansion efficiencies of at least 3 and less than 5.

SMILES | fold induction at 1 µg/mL | Expansion efficiency
C/C(=N\NC(=O)c1ccc(C(=O)NCc2cccc(C(N)=O)c2)s1)c1csc(-c2ccc(Br)cc2)c1O [compound 94] | ≥ 10 | 
C/C(=N\NC(=O)c1ccc(C(=O)NCc2cccc(C(N)=O)c2)s1)c1csc(-c2ccc(C(F)(F)F)cc2)c1O [compound 95] | ≥ 10 | 
C/C(=N\NC(=O)c1ccc(C(=O)NCc2cccc(C(N)=O)c2)s1)c1csc(-c2ccc(Cl)cc2)c1O [compound 96] | ≥ 10 | 
C/C(=N\NC(=O)c1ccc(C(=O)NCc2cccc(C(N)=O)c2)s1)c1csc(-c2ccc(OC(F)(F)F)cc2)c1O [compound 97] | ≥ 10 | 
COc1ccc(-c2scc(/C(C)=N/NC(=O)c3ccc(C(=O)NCc4cccc(C(N)=O)c4)s3)c2O)cc1 [compound 98] | ≥ 10 | 
C/C(=N\NC(=O)c1ccc(C(=O)NCc2ccccc2C(N)=O)s1)c1csc(-c2ccc(Cl)c(Cl)c2)c1O [compound 99] | ≥ 10 | 
C/C(=N\NC(=O)c1ccc(C(=O)NCc2ccccc2C(N)=O)s1)c1csc(-c2ccc(C(C)(C)C)cc2)c1O [compound 100] | 3 to 5 | 
C/C(=N\NC(=O)c1ccc(C(=O)NCc2ccccc2C(N)=O)s1)c1csc(-c2ccc(Br)cc2)c1O [compound 101] | ≥ 10 | 
C/C(=N\NC(=O)c1ccc(C(=O)NCc2ccccc2C(N)=O)s1)c1csc(-c2ccc(C(F)(F)F)cc2)c1O [compound 102] | ≥ 10 | 
C/C(=N\NC(=O)c1ccc(C(=O)NCc2ccccc2C(N)=O)s1)c1csc(-c2ccc(Cl)cc2)c1O [compound 103] | ≥ 10 | 
C/C(=N\NC(=O)c1ccc(C(=O)NCc2ccccc2C(N)=O)s1)c1csc(-c2ccc(OC(F)(F)F)cc2)c1O [compound 104] | ≥ 10 | 
COc1ccc(-c2scc(/C(C)=N/NC(=O)c3ccc(C(=O)NCc4ccccc4C(N)=O)s3)c2O)cc1 [compound 105] | 5 to 10 | 
CNC(=O)c1ccc(CNC(=O)c2ccc(C(=O)N/N=C(\C)c3csc(-c4ccc(Cl)c(Cl)c4)c3O)s2)cc1 [compound 106] | ≥ 10 | 
CNC(=O)c1ccc(CNC(=O)c2ccc(C(=O)N/N=C(\C)c3csc(-c4ccc(C(C)(C)C)cc4)c3O)s2)cc1 [compound 107] | ≥ 10 | 
CNC(=O)c1ccc(CNC(=O)c2ccc(C(=O)N/N=C(\C)c3csc(-c4ccc(Br)cc4)c3O)s2)cc1 [compound 108] | ≥ 10 | 
CNC(=O)c1ccc(CNC(=O)c2ccc(C(=O)N/N=C(\C)c3csc(-c4ccc(C(F)(F)F)cc4)c3O)s2)cc1 [compound 109] | ≥ 10 | 
CNC(=O)c1ccc(CNC(=O)c2ccc(C(=O)N/N=C(\C)c3csc(-c4ccc(Cl)cc4)c3O)s2)cc1 [compound 110] | ≥ 10 | 
CNC(=O)c1ccc(CNC(=O)c2ccc(C(=O)N/N=C(\C)c3csc(-c4ccc(OC(F)(F)F)cc4)c3O)s2)cc1 [compound 111] | ≥ 10 | 
CNC(=O)c1ccc(CNC(=O)c2ccc(C(=O)N/N=C(\C)c3csc(-c4ccc(OC)cc4)c3O)s2)cc1 [compound 112] | ≥ 10 | 
C/C(=N\NC(=O)c1ccc(C(=O)NC(C)c2ccc(C(N)=O)cc2)s1)c1csc(-c2ccc(Cl)c(Cl)c2)c1O (stereo not shown) [compound 113] | ≥ 10 | 

SMILES | fold induction at 1 µg/mL | Expansion efficiency
C/C(=N\NC(=O)c1ccc(C(=O)NC(C)c2ccc(C(N)=O)cc2)s1)c1csc(-c2ccc(C(C)(C)C)cc2)c1O (stereo not shown) [compound 114] | ≥ 10 | 
C/C(=N\NC(=O)c1ccc(C(=O)NC(C)c2ccc(C(N)=O)cc2)s1)c1csc(-c2ccc(Br)cc2)c1O (stereo not shown) [compound 115] | ≥ 10 | 
C/C(=N\NC(=O)c1ccc(C(=O)NC(C)c2ccc(C(N)=O)cc2)s1)c1csc(-c2ccc(C(F)(F)F)cc2)c1O (stereo not shown) [compound 116] | ≥ 10 | 
C/C(=N\NC(=O)c1ccc(C(=O)NC(C)c2ccc(C(N)=O)cc2)s1)c1csc(-c2ccc(Cl)cc2)c1O (stereo not shown) [compound 117] | ≥ 10 | 
C/C(=N\NC(=O)c1ccc(C(=O)NC(C)c2ccc(C(N)=O)cc2)s1)c1csc(-c2ccc(OC(F)(F)F)cc2)c1O (stereo not shown) [compound 118] | ≥ 10 | 
COc1ccc(-c2scc(/C(C)=N/NC(=O)c3ccc(C(=O)NC(C)c4ccc(C(N)=O)cc4)s3)c2O)cc1 (stereo not shown) [compound 119] | ≥ 10 | 
CC(=O)Nc1ccc(C(C)NC(=O)c2ccc(C(=O)N/N=C(\C)c3csc(-c4ccc(Cl)c(Cl)c4)c3O)s2)cc1 (stereo not shown) [compound 120] | ≥ 10 | 
CC(=O)Nc1ccc(C(C)NC(=O)c2ccc(C(=O)N/N=C(\C)c3csc(-c4ccc(C(C)(C)C)cc4)c3O)s2)cc1 (stereo not shown) [compound 121] | 5 to 10 | 
CC(=O)Nc1ccc(C(C)NC(=O)c2ccc(C(=O)N/N=C(\C)c3csc(-c4ccc(Br)cc4)c3O)s2)cc1 (stereo not shown) [compound 122] | ≥ 10 | 
CC(=O)Nc1ccc(C(C)NC(=O)c2ccc(C(=O)N/N=C(\C)c3csc(-c4ccc(C(F)(F)F)cc4)c3O)s2)cc1 (stereo not shown) [compound 123] | ≥ 10 | 
CC(=O)Nc1ccc(C(C)NC(=O)c2ccc(C(=O)N/N=C(\C)c3csc(-c4ccc(Cl)cc4)c3O)s2)cc1 (stereo not shown) [compound 124] | ≥ 10 | 
CC(=O)Nc1ccc(C(C)NC(=O)c2ccc(C(=O)N/N=C(\C)c3csc(-c4ccc(OC(F)(F)F)cc4)c3O)s2)cc1 (stereo not shown) [compound 125] | ≥ 10 | 
COc1ccc(-c2scc(/C(C)=N/NC(=O)c3ccc(C(=O)NC(C)c4ccc(NC(C)=O)cc4)s3)c2O)cc1 (stereo not shown) [compound 126] | ≥ 10 | 
C/C(=N\NC(=O)c1ccc(C(=O)NCc2cc(C)n(C)n2)s1)c1csc(-c2ccc(Br)cc2)c1O [compound 127] | ≥ 10 | 
C/C(=N\NC(=O)c1ccc(C(=O)NCc2cc(C)n(C)n2)s1)c1csc(-c2ccc(OC(F)(F)F)cc2)c1O [compound 128] | ≥ 10 | 
COc1ccc(-c2scc(/C(C)=N/NC(=O)c3ccc(C(=O)NCc4cc(C)n(C)n4)s3)c2O)cc1 [compound 129] | ≥ 10 | 
C/C(=N\NC(=O)c1ccc(C(=O)NCc2cn(C)cn2)s1)c1csc(-c2ccc(Br)cc2)c1O [compound 130] | ≥ 10 | 
C/C(=N\NC(=O)c1ccc(C(=O)NCc2cn(C)cn2)s1)c1csc(-c2ccc(C(F)(F)F)cc2)c1O [compound 131] |  | A (A for expansion efficiencies of 10 or greater)
C/C(=N\NC(=O)c1ccc(C(=O)NCc2cn(C)cn2)s1)c1csc(-c2ccc(Cl)cc2)c1O [compound 132] | ≥ 10 | 
COc1ccc(-c2scc(/C(C)=N/NC(=O)c3ccc(C(=O)NCc4cn(C)cn4)s3)c2O)cc1 [compound 133] | ≥ 10 | 
